Laboratory results: patent US11713338B2, “Cyclic peptides multimers targeting α-4-β-7 integrin” (priority 2016, dated 2023)
pEC50, pIC50: −log10 of the molar value.

Target: T1, integrin α4β7 on α4β7+ memory T helper cells (Homo sapiens, UniProt P13612+P26010)
T1 construct: endogenous in cells
T1 sequence (P13612 34-1032): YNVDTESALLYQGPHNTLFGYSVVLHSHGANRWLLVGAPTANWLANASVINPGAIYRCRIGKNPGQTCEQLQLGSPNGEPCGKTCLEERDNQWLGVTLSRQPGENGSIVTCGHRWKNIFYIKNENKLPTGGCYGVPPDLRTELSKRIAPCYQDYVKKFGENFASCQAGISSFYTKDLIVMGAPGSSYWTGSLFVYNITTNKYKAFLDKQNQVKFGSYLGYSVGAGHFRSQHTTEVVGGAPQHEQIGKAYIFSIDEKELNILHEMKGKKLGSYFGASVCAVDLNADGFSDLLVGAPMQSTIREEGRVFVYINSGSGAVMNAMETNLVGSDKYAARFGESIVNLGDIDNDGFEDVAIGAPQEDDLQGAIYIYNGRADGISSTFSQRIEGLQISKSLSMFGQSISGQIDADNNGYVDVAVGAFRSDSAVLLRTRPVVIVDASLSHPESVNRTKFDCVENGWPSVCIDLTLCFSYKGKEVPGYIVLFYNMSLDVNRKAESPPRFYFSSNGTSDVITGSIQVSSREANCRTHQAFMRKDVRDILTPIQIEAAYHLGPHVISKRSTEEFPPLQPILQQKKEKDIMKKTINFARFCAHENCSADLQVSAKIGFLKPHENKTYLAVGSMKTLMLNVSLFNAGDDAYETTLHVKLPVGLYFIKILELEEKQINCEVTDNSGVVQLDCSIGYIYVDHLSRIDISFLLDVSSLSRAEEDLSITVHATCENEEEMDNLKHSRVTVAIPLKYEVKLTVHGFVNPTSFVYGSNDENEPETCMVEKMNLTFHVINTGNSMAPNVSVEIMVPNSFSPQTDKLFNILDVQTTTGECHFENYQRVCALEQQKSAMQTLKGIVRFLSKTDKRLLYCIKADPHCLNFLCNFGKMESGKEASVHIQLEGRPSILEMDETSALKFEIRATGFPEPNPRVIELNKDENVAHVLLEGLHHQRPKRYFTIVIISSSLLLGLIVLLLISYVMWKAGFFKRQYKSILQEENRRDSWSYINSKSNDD
T1 sequence (P26010 20-798): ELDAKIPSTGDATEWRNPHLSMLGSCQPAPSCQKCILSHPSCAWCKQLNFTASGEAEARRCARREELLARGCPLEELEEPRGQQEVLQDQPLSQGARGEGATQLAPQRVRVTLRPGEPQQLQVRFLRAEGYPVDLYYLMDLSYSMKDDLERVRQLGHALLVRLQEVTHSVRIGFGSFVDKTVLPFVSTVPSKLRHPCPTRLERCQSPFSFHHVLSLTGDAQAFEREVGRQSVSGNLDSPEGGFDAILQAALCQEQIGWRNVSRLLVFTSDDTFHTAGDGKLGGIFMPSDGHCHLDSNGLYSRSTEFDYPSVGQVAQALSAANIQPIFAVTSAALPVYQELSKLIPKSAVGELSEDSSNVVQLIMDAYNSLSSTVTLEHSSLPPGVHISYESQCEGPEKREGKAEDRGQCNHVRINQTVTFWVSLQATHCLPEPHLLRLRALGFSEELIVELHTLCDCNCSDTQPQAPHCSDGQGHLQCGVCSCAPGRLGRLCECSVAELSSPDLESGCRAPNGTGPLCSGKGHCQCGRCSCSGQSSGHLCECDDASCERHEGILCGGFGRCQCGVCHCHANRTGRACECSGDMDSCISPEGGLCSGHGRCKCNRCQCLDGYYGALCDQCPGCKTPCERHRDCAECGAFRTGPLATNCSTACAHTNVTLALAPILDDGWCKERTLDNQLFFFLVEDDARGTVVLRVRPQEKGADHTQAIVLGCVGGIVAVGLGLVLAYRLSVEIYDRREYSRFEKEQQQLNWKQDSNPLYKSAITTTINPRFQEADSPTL
Assay: MAdCAM-1 competition / receptor occupancy assay in human whole blood, α4β7-positive Th memory cells
Format: cell-based
Conditions: human whole blood; for pIC50: inhibition of MAdCAM-1 binding to α4β7-positive Th memory cells, FACS, read-out: MADCAM FACS α4β7 Th mem
Outline: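 Human heparinised whole blood; saturating biotinylated rhMAdCAM-1-Fc or rhVCAM-1-Fc bound 1 h at RT, stained in buffer with 4 mM MnCl2, detected by streptavidin-APC flow cytometry on gated CD45+CD3+CD4+CD45RO+CD49d+ β7+ or β7-lo cells. Occupancy = 100−((% ligand-positive cells with compound/% ligand-positive cells DMSO)*100).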

CC(C)C[C@@H]1NC(=O)c2ccc(-c3ccc(N4CCN(C(=O)c5ccccc5-c5ccccc5C(=O)N5CCN(c6ccc(-c7ccc8cc7CNC(=O)[C@@H]7CCCN7[C@H](C(=O)NC(C)(C)C)[C@H](C)NC(=O)[C@H]([C@@H](C)O)NC(=O)[C@H](CC(=O)O)NC(=O)[C@H](CC(C)C)NC8=O)cc6)CC5)CC4)cc3)c(c2)CNC(=O)[C@@H]2CCCN2[C@H](C(=O)NC(C)(C)C)[C@H](C)NC(=O)[C@H]([C@@H](C)O)NC(=O)[C@H](CC(=O)O)NC1=O [Compound 517]
pEC50 (FIG. 7, read-out: EC50, competition with saturating amount of MAdCAM): 7.42
pIC50: 7.37

CC(C)C[C@@H]1NC(=O)c2ccc(-c3ccc(N4CCN(Cc5ccc(CN6CCN(c7ccc(-c8ccc9cc8CNC(=O)[C@@H]8CCCN8[C@H](C(=O)NC(C)(C)C)[C@H](C)NC(=O)[C@H]([C@@H](C)O)NC(=O)[C@H](CC(=O)O)NC(=O)[C@H](CC(C)C)NC9=O)cc7)CC6)cc5)CC4)cc3)c(c2)CNC(=O)[C@@H]2CCCN2[C@H](C(=O)NC(C)(C)C)[C@H](C)NC(=O)[C@H]([C@@H](C)O)NC(=O)[C@H](CC(=O)O)NC1=O [Compound 500]
pIC50: 7.26

CC(C)C[C@@H]1NC(=O)c2ccc(-c3ccc(N4CCN(C(=O)C5(C(=O)N6CCN(c7ccc(-c8ccc9cc8CNC(=O)[C@@H]8CCCN8[C@H](C(=O)NC(C)(C)C)[C@H](C)NC(=O)[C@H]([C@@H](C)O)NC(=O)[C@H](CC(=O)O)NC(=O)[C@H](CC(C)C)NC9=O)cc7)CC6)Cc6ccccc6C5)CC4)cc3)c(c2)CNC(=O)[C@@H]2CCCN2[C@H](C(=O)NC(C)(C)C)[C@H](C)NC(=O)[C@H]([C@@H](C)O)NC(=O)[C@H](CC(=O)O)NC1=O [Compound 461]
pIC50: 7.03

CC(C)C[C@@H]1NC(=O)c2ccc(-c3ccc(N4CCN(C(=O)c5cc(F)ccc5-c5ccc(F)cc5C(=O)N5CCN(c6ccc(-c7ccc8cc7CNC(=O)[C@@H]7CCCN7[C@H](C(=O)NC(C)(C)C)[C@H](C)NC(=O)[C@H]([C@@H](C)O)NC(=O)[C@H](CC(=O)O)NC(=O)[C@H](CC(C)C)NC8=O)cc6)CC5)CC4)cc3)c(c2)CNC(=O)[C@@H]2CCCN2[C@H](C(=O)NC(C)(C)C)[C@H](C)NC(=O)[C@H]([C@@H](C)O)NC(=O)[C@H](CC(=O)O)NC1=O [Compound 475]
pIC50: 7.13
